Test results reported in article PMC8837603, “Lapcin, a potent dual topoisomerase I/II inhibitor discovered by soil metagenome guided total chemical synthesis” (Nature Communications, 2022).
“Also recorded” adds a separate entry of the source.

Key:
Type in all cases: cell-based
[1] = tested on: Candida albicans ATCC76485; assay: MIC assay, Candida albicans; settings: YPD, 16 h, n = 2
Description: Lapcin was tested for antimicrobial activity against the bacteria and fungi shown in Supplementary Table 4. […] Lapcin was dissolved in sterile DMSO to make a 3.2 mg/mL working solution. Lapcin was diluted across 96-well plates using a 2-fold serial dilution method to give a concentration range of 64 to 0.06 µg/mL in 50 µL of LB broth. A single colony of each test organism was grown in either 5 mL LB (bacteria) or YPD (fungi) medium overnight at 37 °C or 30 °C, respectively. Saturated overnight cultures were diluted 5,000-fold, and then 50 µL of dilute cells were transferred into each well of the assay plates. Finally, each well contains a total volume of 100 µL.

human cancer cell lines = assay: MTT cell viability assay, whole cell line panel
Description: An MTT (2-(4,5-dimethylthiazol-2-yl)−2,5-diphenyltetrazolium bromide) assay was used to determine the cytotoxicity of lapcin towards diverse cancer cell lines. Lapcin was dissolved in DMSO to make a 3.2 mg/mL working solution. For each cancer line detailed in Supplementary Table 5, cells at 80-90% confluency were counted and seeded in 96-well, flat bottom microplates and incubated at 37 °C with a 5% CO2 atmosphere. Outer wells were unused to avoid edge effects. After adhering for 24 h, the medium was sterilely aspirated and replaced with 100 µL of fresh medium containing lapcin or a control compound serially diluted at concentrations ranging from 8,000 to 0.00382 ng/mL. After 48 h (37 °C, 5% CO2), the medium was carefully removed and 110 µL of freshly prepared MTT solution (10 µL of 5 mg/mL MTT in PBS (pH 7.4) premixed with 100 µL of complete medium) was added to each well. After 3 h at 37 °C with 5% CO2, 100 µL of solubilization solution (40% DMF, 16% SDS and 2% acetic acid in H2O) was added to each well and precipitated formazan crystals were allowed to dissolve for 4 h. The absorbance of each well was then measured at 570 nm using a Tecan microplate reader.

[2] = tested on: diverse microbial pathogens; assay: Antimicrobial/antifungal susceptibility, whole panel; settings: at the highest concentration tested
Description: Lapcin was tested for antimicrobial activity against the bacteria and fungi shown in Supplementary Table 4. […] Ciprofloxacin (Sigma, USA) and Nystatin (Sigma, USA) were used as positive control for bacteria and fungi, respectively. Lapcin was dissolved in sterile DMSO to make a 3.2 mg/mL working solution. Lapcin was diluted across 96-well plates using a 2-fold serial dilution method to give a concentration range of 64 to 0.06 µg/mL in 50 µL of LB broth. A single colony of each test organism was grown in either 5 mL LB (bacteria) or YPD (fungi) medium overnight at 37 °C or 30 °C, respectively. Saturated overnight cultures were diluted 5,000-fold, and then 50 µL of dilute cells were transferred into each well of the assay plates. Finally, each well contains a total volume of 100 µL.

## CCCCCCCCCCCC(O)CC(=O)N[C@@H](C)C(=O)N[C@@H](CO)C(=O)N[C@@H](C)C(=O)Nc1ccc(-c2nc(-c3nc(C(=O)N[C@@H](CC(N)=O)C(=O)Nc4ccc(C(=O)Nc5ccc(C(=O)Nc6ccc(C(=O)O)cc6)c(O)c5OC(C)C)cc4)cs3)cs2)cc1 (stereo partly drawn) [Lapcin, 4-(4-(4-((2S)-4-amino-2-(2'-(4-((2S)-2-((2S)-3-hydroxy-2-((2S)-2-(3-hydroxytetradecanamido)propanamido)propanamido)propanamido)phenyl)-[2,4'-bithiazole]-4-carboxamido)-4-oxobutanamido)benzamido)-2-hydroxy-3-isopropoxybenzamido)benzoic acid]
[1]
  MIC, Candida albicans: > 32 µg/mL
Human cancer cell lines; Table 1 IC50s, therapeutic window
  difference in IC50 between non-cancerous HEK293 and most susceptible cell lines: over 3 orders of magnitude
Human cancer cell lines; all cell lines except NCI-H226
  potency relative to etoposide in cell lines: more potent than the topoisomerase II inhibitor etoposide
Human cancer cell lines; breast, lung, colon, bone and cervical cancer cell lines, MTT, 48 h
  cytotoxic potency (IC50) in words: nM to pM IC50s; also recorded: potent human cancer cell line toxin; also recorded: nM to pM (IC50) inhibitor
Human cancer cell lines; exception of HCT116, HCC1806 and NCI-H226
  potency relative to camptothecin in cell lines: more potent than the topoisomerase I inhibitor camptothecin
Human cancer cell lines; reported p53 expression levels of the cell lines tested
  correlation of activity with p53 expression: general correlation between lapcin activity and reported p53 expression levels
[2]
  antimicrobial or antifungal activity: no antimicrobial or antifungal activity
